From US20090062253A1, “HETEROCYCLODIAZEPINE CANNABINOID RECEPTOR MODULATORS FOR TREATMENT OF DISEASE” (KALYPSYS, INC., priority 2007, published 2009)

Assays:
[1] = molecular target: T1, Human CB2 (Homo sapiens, UniProt P34972); test: Human CB2 Radioligand Binding Assay; conditions: membranes from stably transfected CHO CB2 cells; competition with [3H] CP-55,940; read-out: CB2 Ligand Binding Asssay
T1 construct: expressed in transfected cells; membrane preparation
Summary of the method: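 Filtration competition against [3H]CP-55,940 at its Kd on membranes from CHO cells stably expressing human CB2; compounds at 10 uM single point or dose-response, 1% DMSO. Buffer 50 mM Tris-HCl pH 7.4, EGTA, MgCl2, 5.0 mg/ml BSA; 90 min at 30° C, scintillation read; 100 nM CP-55,940 = 100%.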

[2] = molecular target: T2, human cannabinoid receptor type 1 (Homo sapiens, UniProt P21554); test: Human CB1 Radioligand Binding Assay (basis of selectivity CB2 vs. CB1)
T2 construct: purchased Perkin Elmer RBHCB1M; host or cells: HEK 293 EBNA cells
T2 sequence (P21554 whole entry): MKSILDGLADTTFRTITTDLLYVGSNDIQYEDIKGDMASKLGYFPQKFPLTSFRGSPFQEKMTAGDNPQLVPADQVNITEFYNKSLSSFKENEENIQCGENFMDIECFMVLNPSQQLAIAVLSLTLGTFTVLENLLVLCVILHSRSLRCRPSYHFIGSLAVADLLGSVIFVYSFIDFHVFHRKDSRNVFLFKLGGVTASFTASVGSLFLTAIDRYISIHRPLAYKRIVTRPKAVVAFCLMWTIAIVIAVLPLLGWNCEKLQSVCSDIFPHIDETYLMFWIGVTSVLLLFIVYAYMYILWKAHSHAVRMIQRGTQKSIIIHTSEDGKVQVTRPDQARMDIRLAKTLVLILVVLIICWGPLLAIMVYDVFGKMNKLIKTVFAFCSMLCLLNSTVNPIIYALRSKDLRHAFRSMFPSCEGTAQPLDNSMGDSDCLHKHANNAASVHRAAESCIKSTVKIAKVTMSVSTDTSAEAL
Summary of the method: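 Filtration competition binding against [3H] CP-55,940 at its Kd, using membranes from HEK 293 EBNA cells expressing human CB1; 90 minutes at 30° C in 50 mM Tris-HCl pH 7.4, 2.5 mM EDTA, 5 mM MgCl2, 5.0 mg/ml BSA, 1% DMSO. Single point 10 uM or dose-response; 100 nM CP-55,940 defined 100% efficacy.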

T1 sequence (P34972 whole entry): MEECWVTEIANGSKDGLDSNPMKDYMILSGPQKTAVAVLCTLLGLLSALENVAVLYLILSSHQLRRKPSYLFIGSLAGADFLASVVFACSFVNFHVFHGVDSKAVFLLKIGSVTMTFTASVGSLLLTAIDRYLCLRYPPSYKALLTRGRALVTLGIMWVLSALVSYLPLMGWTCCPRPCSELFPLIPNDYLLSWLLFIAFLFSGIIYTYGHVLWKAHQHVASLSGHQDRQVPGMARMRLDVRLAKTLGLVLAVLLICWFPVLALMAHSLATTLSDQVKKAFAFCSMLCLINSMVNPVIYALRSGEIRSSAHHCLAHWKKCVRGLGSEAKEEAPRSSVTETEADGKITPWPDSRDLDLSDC

| Structure (SMILES) | IC50 (radioligand displacement) [1] [nM] | Selectivity, CB2 vs. CB1 [2] |
| --- | --- | --- |
| CC(C)(C)C1CCC(C2c3cccn3CCCN2C(=O)Nc2ccc(F)cc2F)CC1 (centres unmarked) [Example 34, 1-(4-tert-Butylcyclohexyl)-N-(2,4-difluorophenyl)-4,5-dihydro-1H-pyrrolo[1,2-a][1,4]diazepine-2(3H)-carboxamide] | < 1000 | + (+ indicates > 10-fold) |
| CC(C)(C)C1CCC(C2c3cccn3CCCN2C(=O)Nc2ccc(Cl)cc2Cl)CC1 (centres unmarked) [Example 35, 1-(4-tert-Butylcyclohexyl)-N-(2,4-dichlorophenyl)-4,5-dihydro-1H-pyrrolo[1,2-a][1,4]diazepine-2(3H)-carboxamide] | < 1000 | − (− indicates < 10-fold) |
| CC(C)(C)c1ccc(C2c3ccnn3CCCN2C(=O)Nc2ccc(F)cc2F)cc1 (centres unmarked) [Example 36, 4-(4-tert-Butylphenyl)-N-(2,4-difluorophenyl)-7,8-dihydro-4H-pyrazolo[1,5-a][1,4]diazepine-5(6H)-carboxamide] | < 1000 | + (+ indicates > 10-fold) |
| CC(C)(C)c1ccc(C2c3cncn3CCCN2C(=O)Nc2ccc(F)cc2F)cc1 (centres unmarked) [Example 37, 9-(4-tert-Butylphenyl)-N-(2,4-difluorophenyl)-6,7-dihydro-5H-imidazo[1,5-a][1,4]diazepine-8(9H)-carboxamide] | < 1000 | + (+ indicates > 10-fold) |
| O=C(Nc1ccc(F)cc1F)N1CCCn2cccc2C1Cc1ccccc1 (centres unmarked) [Example 41, 1-Benzyl-N-(2,4-difluorophenyl)-4,5-dihydro-1H-pyrrolo[1,2-a][1,4]diazepine-2(3H)-carboxamide] | > 1000 | − (− indicates < 10-fold) |
| CC(C)(C)C1CCC(C2c3cccn3CCCN2C(=O)c2ccc(F)cc2F)CC1 (centres unmarked) [Example 45, (1-(4-tert-Butylcyclohexyl)-4,5-dihydro-1H-pyrrolo[1,2-a][1,4]diazepin-2(3H)-yl)(2,4-difluorophenyl)methanone] | < 1000 | − (− indicates < 10-fold) |
| CC(=O)N1CCCn2cccc2C1c1ccc(C(C)(C)C)cc1 (centres unmarked) [Example 46, 1-(1-(4-tert-Butylphenyl)-4,5-dihydro-1H-pyrrolo[1,2-a][1,4]diazepin-2(3H)-yl)ethanone] | > 1000 | − (− indicates < 10-fold) |
| CC(C)(C)c1ccc(C2c3nccn3CCCN2C(=O)c2ccc(F)cc2F)cc1 (centres unmarked) [Example 47, (9-(4-tert-Butylphenyl)-6,7-dihydro-5H-imidazo[1,2-a][1,4]diazepin-8(9H)-yl)(2,4-difluorophenyl)methanone] | < 1000 | − (− indicates < 10-fold) |
| CC(C)(C)c1ccc(C2c3nccn3CCCN2C(=O)c2ccc(Cl)cc2Cl)cc1 (centres unmarked) [Example 48, (9-(4-tert-Butylphenyl)-6,7-dihydro-5H-imidazo[1,2-a][1,4]diazepin-8(9H)-yl)(2,4-dichlorophenyl)methanone] | > 1000 | − (− indicates < 10-fold) |
| CC(C)(C)c1ccc(C2c3cccn3CCCN2C(=O)c2ccc(Cl)cc2Cl)cc1 (centres unmarked) [Example 49, (1-(4-tert-Butylphenyl)-4,5-dihydro-1H-pyrrolo[1,2-a][1,4]diazepin-2(3H)-yl)(2,4-dichlorophenyl)methanone] | < 1000 | − (− indicates < 10-fold) |
| CC(C)(C)c1ccc(C2c3cccn3CCCN2C(=O)Cc2ccc(F)cc2)cc1 (centres unmarked) [Example 50, 1-(1-(4-tert-Butylphenyl)-4,5-dihydro-1H-pyrrolo[1,2-a][1,4]diazepin-2(3H)-yl)-2-(4-fluorophenyl)ethanone] | < 1000 | − (− indicates < 10-fold) |
| CC(C)(C)c1ccc(C2c3cccn3CCCN2C(=O)Cc2c(F)cccc2F)cc1 (centres unmarked) [Example 51, 1-(1-(4-tert-Butylphenyl)-4,5-dihydro-1H-pyrrolo[1,2-a][1,4]diazepin-2(3H)-yl)-2-(2,6-difluorophenyl)ethanone] | > 1000 | − (− indicates < 10-fold) |
| CC(C)(C)c1ccc(C2c3cccn3CCCN2C(=O)CN2CCOCC2)cc1 (centres unmarked) [Example 52, 1-(1-(4-tert-Butylphenyl)-4,5-dihydro-1H-pyrrolo[1,2-a][1,4]diazepin-2(3H)-yl)-2-morpholinoethanone] | > 1000 | − (− indicates < 10-fold) |
| CC(C)(C)c1ccc(C2c3cccn3CCCN2c2nc3ccccc3o2)cc1 (centres unmarked) [Example 53, 2-(1-(4-tert-Butylphenyl)-4,5-dihydro-1H-pyrrolo[1,2-a][1,4]diazepin-2(3H)-yl)benzo[d]oxazole] | > 1000 | − (− indicates < 10-fold) |
| CC(C)(C)c1ccc(Cc2ccc3n2CCCN3c2nc3ccccc3o2)cc1 [Example 54, 2-(6-(4-tert-Butylbenzyl)-3,4-dihydropyrrolo[1,2-a]pyrimidin-1(2H)-yl)benzo[d]oxazole] | > 1000 | − (− indicates < 10-fold) |
| CC(C)(C)c1ccc(C2=C(C(=O)Nc3ccc(F)cc3F)CCn3cccc32)cc1 [Example 56, 8-(4-tert-Butylphenyl)-N-(2,4-difluorophenyl)-5,6-dihydroindolizine-7-carboxamide] | > 1000 | − (− indicates < 10-fold) |
| CC(C)(C)c1ccc(C2=C(C(=O)Nc3ccc(Cl)cc3Cl)CCn3cccc32)cc1 [Example 57, 8-(4-tert-Butylphenyl)-N-(2,4-dichlorophenyl)-5,6-dihydroindolizine-7-carboxamide] | > 1000 | − (− indicates < 10-fold) |
| CC(C)(C)c1ccc(C2=C(C(=O)Nc3ccc(OC(F)(F)F)cc3)CCn3cccc32)cc1 [Example 58, 8-(4-tert-Butylphenyl)-N-(4-(trifluoromethoxy)phenyl)-5,6-dihydroindolizine-7-carboxamide] | > 1000 | − (− indicates < 10-fold) |
| CC(C)(C)c1ccc(C2=C(C(=O)Nc3ccc(F)c(F)c3)CCn3cccc32)cc1 [Example 59, 8-(4-tert-Butylphenyl)-N-(3,4-difluorophenyl)-5,6-dihydroindolizine-7-carboxamide] | < 1000 | + (+ indicates > 10-fold) |
| CC(C)(C)c1ccc(C2=C(C(=O)Nc3ccc(Cl)cc3)CCn3cccc32)cc1 [Example 60, 8-(4-tert-Butylphenyl)-N-(4-chlorophenyl)-5,6-dihydroindolizine-7-carboxamide] | < 1000 | − (− indicates < 10-fold) |
| CC(C)(C)c1ccc(C2=C(C(=O)Nc3ccc(F)cc3F)CCCn3cccc32)cc1 [Example 62, (E)-9-(4-tert-Butylphenyl)-N-(2,4-difluorophenyl)-6,7-dihydro-5H-pyrrolo[1,2-a]azepine-8-carboxamide] | < 1000 | − (− indicates < 10-fold) |
| CC(C)(C)c1ccc(C2=C(C(=O)Nc3ccc(Cl)cc3Cl)CCCn3cccc32)cc1 [Example 63, (E)-9-(4-tert-Butylphenyl)-N-(2,4-dichlorophenyl)-6,7-dihydro-5H-pyrrolo[1,2-a]azepine-8-carboxamide] | < 1000 | − (− indicates < 10-fold) |
